Common to all, as to format: cell-based, human
Assay [1] deals with bradykinin-evoked Ca^2+ signals in hBASMCs. The assay can be described thus: Bradykinin-evoked Ca2+ signals in populations of fluo-4-loaded hBASMCs. Conditions: cells treated with PTX 100 ng·mL^−1, 24 h; HBS. Here is the method: (§1) Two methods were used to measure [Ca^2+]i in populations of hBASMCs. For measurements using a FlexStation III plate-reader (Molecular Devices, Sunnyvale, CA, USA), hBASMCs were seeded into 96-well plates (10^4 cells per well). After about 4 days, when the cells were confluent, the medium was replaced with SMGM-2 without serum or growth factor supplements, and the cells were used after a further 24 h. […] Cells were washed with HEPES-buffered saline (HBS: 135 mM NaCl, 5.9 mM KCl, 1.2 mM MgCl2, 1.5 mM CaCl2, 11.6 mM HEPES, 11.5 mM D-glucose, pH 7.3), and loaded with fluo-4 by incubation with fluo-4-AM (2 μM) in HBS (100 μL per well) containing pluronic F127 (0.02%, v/v) and probenecid (2.5 mM). After 1 h at 20 °C, the medium was replaced with HBS (100 μL per well) containing probenecid (2.5 mM). After a further incubation at 20 °C for 1 h, the medium was replaced with HBS (60–80 μL per well) or nominally Ca^2+-free HBS, and the cells were used immediately for experiments at 20 °C. […] Drug additions (20 μL at 4 or 5 times the final concentration) were added automatically. Fluorescence from fluo-4 (excitation 485 nm, emission 525 nm) was recorded at 1.44-s intervals using Softmax Pro 5.4 (Molecular Devices). Fluorescence was calibrated to [Ca^2+]i from: [Ca^2+]i=KDCa×(F−Fmin/Fmax−F) where, KDCa is the equilibrium dissociation constant of fluo-4 for Ca^2+ (345 nM), F is the recorded fluorescence, and Fmin and Fmax are the fluorescence values recorded after addition of triton-X-100 (0.1%, v/v) with either BAPTA (10 mM, Fmin) or CaCl2 (10 mM, Fmax). […] Fmax was determined for each well at the end of an experiment, and the average value was used for each column of 8 wells. Fmin was determined from parallel wells on each plate.
(§2) For measurements of [Ca^2+]i using an FDSS 7000 FLIPR (Hamamatsu), hBASMCs were seeded into 384-well plates (8000 cells per well) in 20 μL of SMGM-2 containing 5% serum. […] The exact composition of this ‘no-wash’ indicator kit is not disclosed by the manufacturer, but it contains fluo-4-AM and components that reduce background fluorescence. […]

In assay [2] the test system is carbachol-evoked Ca^2+ signals in hBASMCs. Kind of assay: Carbachol-evoked Ca2+ signals in populations of fluo-4-loaded hBASMCs. Particulars: cells treated with PTX 100 ng·mL^−1, 24 h; HBS. The protocol: as §1, §2
Assay [3] deals with intracellular cAMP in hBASMCs. Kind of assay: Intracellular cAMP in hBASMCs by mass spectrometry. The protocol:
These methods were modified from. Confluent cultures of hBASMCs in 48-well plates were serum-deprived (6–24 h) and the medium was then replaced with HBSS (300 μL) containing HEPES (5 mM) and BSA (0.1%, w/v). Cells were stimulated at 20 °C, and reactions were terminated by aspiration of the medium and addition of acetonitrile (170 μL) containing dibutyryl cAMP (0.5 μM, to provide an internal standard). The plates were centrifuged (1500 xg, 15 min, 4 °C), supernatants (158 μL) were transferred to a 96-well, glass-coated plate (Thermo Scientific), and aqueous NH4HCO3 (pH 9.4, 93 μL) was added to each sample. After mixing and centrifugation (1500 xg, 15 min, 4 °C), samples were stored at 4 °C before analysis. Samples were analyzed by liquid chromatography tandem mass spectrometry (LC–MS/MS) using a Waters Acquity UPLC and a Sciex 5500 mass spectrometer equipped with an electrospray ionization source. ATP, ADP, AMP and cAMP were analyzed using a ZIC-pHILIC polymeric column (5-μm particle size, […]) maintained at 35 °C. Calibration standards were prepared in the lysis medium containing the internal standard, dibutyryl cAMP (0.5 μM). […] Samples were detected using multiple reaction monitoring in negative ion mode using the following parent-to-daughter mass transitions: cAMP m/z 327.9 → 133.9 (DP −100 V, CE −33 eV), AMP m/z 345.9 → 134.0 (DP −100 V, CE −50 eV), ADP m/z 426.0 → 134.0 (DP −100 V, CE −30 eV), ATP m/z 505.9 → 408.0 (DP −100 V, CE −35 eV), and internal standard dibutyryl cAMP m/z 468.1 → 175.0 (DP −100 V, CE −35 eV). Concentration-effect relationships were fitted to logistic equations for each experiment using GraphPad Prism (version 5, GraphPad Software, La Jolla, CA, USA), from which half-maximally effective drug concentrations (EC50), maximal responses, and Hill slopes were determined. For statistical analyses, maximal responses, Hill slopes and pEC50 (-logEC50) or pIC50 (-log of the half-maximal inhibitory concentration, IC50) values determined for individual experiments were pooled for statistical analysis. […]

Where a name gives a salt, the structure may show the parent alone.

With `CC(C)NC[C@H](O)c1ccc(O)c(O)c1` [isoproterenol, (−)-isoproterenol hydrochloride], the “effect on the Ca2+ signals evoked by bradykinin after pertussis toxin” value in assay [1] was “remained insensitive to isoproterenol”. Also, the “effect on the Ca2+ signals evoked by carbachol after pertussis toxin” value in assay [2] is “remained insensitive to isoproterenol”. The EC50 in assay [3] (Homo sapiens, 5 min, MS analyses, n = 3, read-out: pEC50 for cAMP accumulation (converted)) was 132 nM. For the same compound, in assay [3] (isoproterenol (5 min) vs IBMX (20 min), histamine 10 μM, cAMP by MS), the “intracellular cAMP associated with matched inhibition of Ca2+ signals, relative to IBMX” value is listed as around 5.4 fold.
